Assays:
B.st. spores [1] = assay: Antibiotic detection test in spiked milk, Trizma/succinate culture of Example 7 (Table 5); format: cell-based, Bacillus (Geobacillus) Stearothermophilus; details: for % Pos (16 hr Result) / 16 hr Result: 16 hours later; for % Pos (Result) / Result: immediately after test completion
Protocol: A Trizma/Succinate solution was prepared by adding 2.5 grams Trizma Base and 6 grams Succinate to 100 mL of reverse osmosis/deionized water (RO/DI Water) in a 125 mL flask. 40 milligrams of BCP (see example 1 for BCP preparation) was then added to a 50 mL conical tube and 25 mL of the Trizma/Succinate solution was added to the 40 milligrams BCP and mixed.
The media was prepared by dissolving 5 grams glucose and 1 gram Mueller Hinton Broth in 100 mL RO/DI Water. 1.2 mL of a 0.01 mg/mL solution of trimethoprim in RO/DI water was added to the media. 20 mL of the BCP/Trizma/Succinate preparation was added to the media and the media was sterile filtered through a 0.45 micron filter and cooled to 4 degrees C.
0.3 grams Difco Bacto-Agar (Item #0140-01), 0.225 NaCl and 17 mL of RO/DI water was combined and mixed and heated the mixture to 95° C. The mixture was removed from the heat and allowed it to cool to 75° C. and then 6 mL media (with BCP/Tris) was added and mixed for 5 minutes. The mixture was cooled to 57° C. and 2 mL spore (concentration of 1 billion cfu/mL) was added and mixed for 5 minutes. 0.200 mL was dispensed into the bottom of each vial.
In test operation 200 microliters of various milk samples, spiked with known concentrations of antibiotics, were pipetted into vials and incubated for the prescribed time (in this test 2 hours 30 minutes) and prescribed temperature (64 degrees C.+/−2 degrees C.). Results were recorded immediately after test completion and 16 hours later. Incubation was in various Charm Inctronic I incubators. Concentrations listed are in parts per billion (ppb). 4 samples were run at each concentration except 16 negative samples were run and 2 samples each for 3 ppb pen G and amoxicillin. Abbreviations are pencillin G (PenG); sulfamethazine (SMZ); sulfadimethoxine (SDM); tylosin (TY); gentamicin (G); oxytetracycline (OT); pirlimycin (Pirl); amoxicillin (Amox); ampicillin (Amp); cloxacillin (Clox); ceftiofur sodium (Ceft); cephaprin (Ceph); tilmicosin (Til); sulfadoxine (SDN); neomycin (Neo).

B.st. spores [2] = assay: Single service kidney swab microbial growth inhibition test, culture of Example 1, with or without beta-lactam receptor; format: cell-based, Bacillus (Geobacillus) Stearothermophilus; details: 12.5 ppb penicillin G; Receptor added dried on swab; note: key: positive (+); negative (−)

With `CN(C)[C@@H]1C(O)=C(C(N)=O)C(=O)[C@@]2(O)C(O)=C3C(=O)c4c(O)cccc4[C@@](C)(O)[C@H]3[C@H](O)[C@@H]12` [OT, oxytetracycline] the “% Pos (16 hr Result)” value (B.st. spores [1]; milk spiked at 200 ppb) was 0%, the “% Pos (Result)” value (B.st. spores [1]; milk spiked at 200 ppb) was 0% and the “% Pos (16 hr Result)” value (B.st. spores [1]; milk spiked at 300 ppb) was 100%. For the same compound, the “% Pos (Result)” value (B.st. spores [1]; milk spiked at 300 ppb) was 100%.

In the case of `CC1(C)S[C@@H]2[C@H](NC(=O)Cc3ccccc3)C(=O)N2[C@H]1C(=O)O` [PenG, penicillin G], the “16 hr Result” value (B.st. spores [1]; milk spiked at 3 ppb) is reported as “Pos”, the “% Pos (16 hr Result)” value (B.st. spores [1]; milk spiked at 3 ppb) is reported as 100% and the “% Pos (Result)” value (B.st. spores [1]; milk spiked at 3 ppb) is reported as 100%. The Result (B.st. spores [1]; milk spiked at 3 ppb) was “Pos”, the “16 hr Result” value (B.st. spores [1]; milk spiked at 4 ppb) was “Pos” and the “% Pos (16 hr Result)” value (B.st. spores [1]; milk spiked at 4 ppb) was 100%. The “% Pos (Result)” value (B.st. spores [1]; milk spiked at 4 ppb) was 100%, the Result (B.st. spores [1]; milk spiked at 4 ppb) was “Pos” and the test result (B.st. spores [2]) was “−”.

With `COc1cc(NS(=O)(=O)c2ccc(N)cc2)nc(OC)n1` [SDM, sulfadimethoxine] the “16 hr Result” value (B.st. spores [1]; milk spiked at 25 ppb) was “Pos”, the “% Pos (16 hr Result)” value (B.st. spores [1]; milk spiked at 25 ppb) was 100% and the “% Pos (Result)” value (B.st. spores [1]; milk spiked at 25 ppb) was 100%. For the same compound, the Result (B.st. spores [1]; milk spiked at 25 ppb) was “Pos”, the “16 hr Result” value (B.st. spores [1]; milk spiked at 50 ppb) was “Pos” and the “% Pos (16 hr Result)” value (B.st. spores [1]; milk spiked at 50 ppb) was 100%. For the same compound, the “% Pos (Result)” value (B.st. spores [1]; milk spiked at 50 ppb) was 100% and the Result (B.st. spores [1]; milk spiked at 50 ppb) was “Pos”.

With `Cc1cc(C)nc(NS(=O)(=O)c2ccc(N)cc2)n1` [SMZ, sulfamethazine] the “16 hr Result” value (B.st. spores [1]; milk spiked at 100 ppb) was “Pos”, the “% Pos (16 hr Result)” value (B.st. spores [1]; milk spiked at 100 ppb) was 100% and the “% Pos (Result)” value (B.st. spores [1]; milk spiked at 100 ppb) was 100%. The Result (B.st. spores [1]; milk spiked at 100 ppb) was “Pos”, the “16 hr Result” value (B.st. spores [1]; milk spiked at 200 ppb) was “Pos” and the “% Pos (16 hr Result)” value (B.st. spores [1]; milk spiked at 200 ppb) was 100%. For the same compound, the “% Pos (Result)” value (B.st. spores [1]; milk spiked at 200 ppb) was 100% and the Result (B.st. spores [1]; milk spiked at 200 ppb) was “Pos”.

`CC[C@H]1OC(=O)C[C@@H](O)[C@H](C)[C@@H](O[C@@H]2O[C@H](C)[C@@H](O[C@H]3C[C@@](C)(O)[C@@H](O)[C@H](C)O3)[C@H](N(C)C)[C@H]2O)[C@@H](CC=O)C[C@@H](C)C(=O)/C=C/C(C)=C/[C@@H]1CO[C@@H]1O[C@H](C)[C@@H](O)[C@@H](OC)[C@H]1OC` [TY, tylosin] was tested, and the “16 hr Result” value (B.st. spores [1]; milk spiked at 40 ppb) was “Pos”, the “% Pos (16 hr Result)” value (B.st. spores [1]; milk spiked at 40 ppb) was 100% and the “% Pos (Result)” value (B.st. spores [1]; milk spiked at 40 ppb) was 100%. For the same compound, the Result (B.st. spores [1]; milk spiked at 40 ppb) was “Pos”, the “16 hr Result” value (B.st. spores [1]; milk spiked at 50 ppb) was “Pos” and the “% Pos (16 hr Result)” value (B.st. spores [1]; milk spiked at 50 ppb) was 100%. The “% Pos (Result)” value (B.st. spores [1]; milk spiked at 50 ppb) was 100% and the Result (B.st. spores [1]; milk spiked at 50 ppb) was “Pos”.

For gentamicin, the “16 hr Result” value (B.st. spores [1]; milk spiked at 300 ppb) was “Pos”, the “% Pos (16 hr Result)” value (B.st. spores [1]; milk spiked at 300 ppb) was 100% and the “% Pos (Result)” value (B.st. spores [1]; milk spiked at 300 ppb) was 100%. The Result (B.st. spores [1]; milk spiked at 300 ppb) was “Pos”, the “16 hr Result” value (B.st. spores [1]; milk spiked at 400 ppb) was “Pos” and the “% Pos (16 hr Result)” value (B.st. spores [1]; milk spiked at 400 ppb) was 100%. The “% Pos (Result)” value (B.st. spores [1]; milk spiked at 400 ppb) was 100% and the Result (B.st. spores [1]; milk spiked at 400 ppb) was “Pos”.

— US8476064B2, “Inhibition assay method and device for detection of antibiotics” (Charm Sciences, Inc., priority 2006, dated 2013)
